Drawing on patent publication US9738595B2, “Carboxamide compounds” (SYNGENTA PARTICIPATIONS AG, priority 2013, dated 2017), this text covers melting point for 4 compounds.

The structures appear in SMILES notation.

On to `CC(C)(NC(=O)c1c(F)cccc1F)C(=O)c1ccc([C@H]2C[C@@H]2C(F)(F)F)cc1` (racemic) [Compound 19.003, N-[1,1-dimethyl-2-oxo-2-[4-[trans-2-(trifluoromethyl)-1-cyclopropyl]phenyl]ethyl]-2,6-difluoro-benzamide], for which the melting point lay within 65 to 82 °C. Compound `CC(C)(NC(=O)c1c(F)cccc1F)C(=O)c1ccc([C@H]2C[C@@H]2C(=O)O)cc1` (racemic) [Compound 19.061, trans-2-[4-[2-[(2,6-Difluorobenzoyl)amino]-2-methyl-propanoyl]phenyl]cyclopropane carboxylic acid] yielded a melting point of 115 to 116 °C. As for `CC(C)(C)OC(=O)N[C@H]1C[C@@H]1c1ccc(C(=O)C(C)(C)NC(=O)c2c(F)cccc2F)cc1` (racemic) [Compound 19.062, trans-tert-Butyl N-[2-[4-[2-[(2,6-difluorobenzoyl)amino]-2-methyl-propanoyl]phenyl]cyclopropyl]carbamate], the figure is 197 to 198 °C. As for `CC(C)(NC(=O)c1c(F)cccc1F)C(=O)c1ccc(C2CC2)cc1` [Compound 19.001, N-[2-(4-cyclopropylphenyl)-1,1-dimethyl-2-oxo-ethyl]-2,6-difluoro-benzamide], the melting point lay within 121 to 123 °C.
